Data set [1] is described as follows: reversed-phase LC retention time (C18, 15 min MeOH gradient); higher = more hydrophobic / later elution.
A short description of data set [2]: collision cross section (TIMS, N2 drift gas) of the primary ion; higher = larger gas-phase ion size.
Setting [3] is: ionization mode: ESI+, ion species: [M+H]+.
Where [4] appears, read: ionization mode: ESI-, ion species: [M-H]-.
Setting [5] is: ionization mode: ESI+, ion species: [M]+.

As for `CC(C)NCC(O)COc1ccc(CC(N)=O)cc1` (stereo not drawn) [Atenolol], in data set [1] (setting [3]), the “reversed-phase LC retention time” value is 6.24 min. The same molecule displayed a collision cross section in data set [2] (setting [3]) of 157.6 Å².

In the case of `CC(C)c1c(C(=O)Nc2ccccc2)c(-c2ccccc2)c(-c2ccc(F)cc2)n1CCC(O)CC(O)CC(=O)O` (stereo not drawn) [Atorvastatin], the “reversed-phase LC retention time” value was 15.1 min in data set [1] (setting [3]) and 14.6 min in data set [1] (setting [4]). The collision cross section in data set [2] (setting [3]) is 232.51 Å²; in data set [2] (setting [4]), 228.86 Å².

As for `CC(C)Nc1nc(N)nc(Cl)n1` [Atrazine desethyl], in data set [1] (setting [3]), the “reversed-phase LC retention time” value came out at 9.74 min. Moreover, in data set [2] (setting [3]), the collision cross section is listed as 138.83 Å².

For the molecule `CCNc1nc(N)nc(Cl)n1` [Atrazine desisopropyl], the “reversed-phase LC retention time” value in data set [1] (setting [3]) was found to be 8.1 min. In data set [2] (setting [3]), the collision cross section is on record as 132.48 Å².

In the case of `CCNc1nc(Cl)nc(NC(C)C)n1` [Atrazine], the “reversed-phase LC retention time” value in data set [1] (setting [3]) came out at 12.8 min. The same molecule had a collision cross section in data set [2] (setting [3]) of 148.84 Å².

Turning to `O=C(O)CCCCCCCC(=O)O` [Azelaic acid], the “reversed-phase LC retention time” value in data set [1] (setting [4]) amounted to 0.98 min. In data set [2] (setting [4]), this molecule registered a collision cross section of 138.44 Å².

`CN1CCCC(n2nc(Cc3ccc(Cl)cc3)c3ccccc3c2=O)CC1` (stereo not drawn) [Azelastine]: the “reversed-phase LC retention time” value in data set [1] (setting [3]) worked out at 12.7 min. In data set [2] (setting [3]), this molecule returned a collision cross section of 189.23 Å².

Take `CCC1OC(=O)C(C)C(OC2CC(C)(OC)C(O)C(C)O2)C(C)C(OC2OC(C)CC(N(C)C)C2O)C(C)(O)CC(C)CN(C)C(C)C(O)C1(C)O` (stereo not drawn) [Azithromycin]: the “reversed-phase LC retention time” value in data set [1] (setting [3]) was 10.9 min. Moreover, the collision cross section in data set [2] (setting [3]) is 264.86 Å².

As to `c1ccc(/N=N/c2ccccc2)cc1` [Azobenzene], the “reversed-phase LC retention time” value in data set [1] (setting [3]) amounted to 13.1 min. In data set [2] (setting [3]), this molecule came in with a collision cross section of 138.4 Å².

Consider `CO/C=C(/C(=O)O)c1ccccc1Oc1cc(Oc2ccccc2C#N)ncn1` [Azoxystrobin acid], for which the entries for the “reversed-phase LC retention time” value in data set [1] (setting [3]) and in data set [1] (setting [4]) were 13 min and 11.5 min, respectively. For the same molecule, the collision cross section is 190.75 Å² in data set [2] (setting [3]) and 188.36 Å² in data set [2] (setting [4]).

With `COC=C(C(=O)OC)c1ccccc1Oc1cc(Oc2ccccc2C#N)ncn1` [Azoxystrobin], in data set [1] (setting [3]), the “reversed-phase LC retention time” value was 13.8 min. This molecule yielded a collision cross section in data set [2] (setting [3]) of 196.56 Å².

`CCN(CCO)c1ccc(N=Nc2sc3cc(OC)ccc3[n+]2C)cc1` [Basic Blue 41]: in data set [1] (setting [5]), the “reversed-phase LC retention time” value is 12.1 min. The molecule also returned a collision cross section in data set [2] (setting [5]) of 195.62 Å².

`CCC(=O)OCC(=O)[C@@]1(OC(=O)CC)[C@@H](C)C[C@H]2[C@@H]3CCC4=CC(=O)C=C[C@]4(C)[C@@]3(Cl)[C@@H](O)C[C@@]21C` [Beclometasone dipropionate]: the “reversed-phase LC retention time” value in data set [1] (setting [4]) amounted to 16.5 min. In data set [2] (setting [4]), this molecule yielded a collision cross section of 223.83 Å².

As for `C[C@H]1C[C@H]2[C@@H]3CCC4=CC(=O)C=C[C@]4(C)[C@@]3(Cl)[C@@H](O)C[C@]2(C)[C@@]1(O)C(=O)CO` [Beclomethasone], the “reversed-phase LC retention time” value was found to be 13.3 min in data set [1] (setting [3]) and 13.6 min in data set [1] (setting [4]). Further, the collision cross section in data set [2] (setting [3]) was 192.43 Å²; in data set [2] (setting [4]) it was 194.28 Å².

With `COC(=O)[C@H](C)N(C(=O)Cc1ccccc1)c1c(C)cccc1C` [Benalaxyl], in data set [1] (setting [3]), the “reversed-phase LC retention time” value was found to be 15.6 min. In data set [2] (setting [3]), the collision cross section is 173.08 Å².

Turning to `CC(C)N1C(=O)c2ccccc2NS1(=O)=O` [Bentazone], the “reversed-phase LC retention time” value in data set [1] (setting [4]) came out at 7.56 min. This molecule also yielded a collision cross section in data set [2] (setting [4]) of 145.72 Å².

With `O=S(=O)(O)c1ccccc1` [Benzenesulfonic acid], the “reversed-phase LC retention time” value in data set [1] (setting [4]) came to 2.42 min. In data set [2] (setting [4]), this molecule displayed a collision cross section of 125.05 Å².

In the case of `CC(C)(C)CC(C)(C)c1ccc(OCCOCC[N+](C)(C)Cc2ccccc2)cc1` [Benzethonium], in data set [1] (setting [5]), the “reversed-phase LC retention time” value was 16.3 min. The same molecule gave a collision cross section in data set [2] (setting [5]) of 211.12 Å².

Regarding `Nc1ccc(-c2ccc(N)cc2)cc1` [Benzidine], the “reversed-phase LC retention time” value in data set [1] (setting [3]) stood at 3.98 min. The molecule further had a collision cross section in data set [2] (setting [3]) of 155.46 Å².

With `c1ccc2[nH]cnc2c1` [Benzimidazole], the “reversed-phase LC retention time” value in data set [1] (setting [3]) was determined as 4.16 min. The collision cross section in data set [2] (setting [3]) was 119.54 Å².

In the case of `COc1ccc(C(=O)c2ccccc2)c(O)c1` [Benzophenone-3], in data set [1] (setting [3]), the “reversed-phase LC retention time” value worked out at 15.1 min. The molecule also came in with a collision cross section in data set [2] (setting [3]) of 148.22 Å².

On to `COc1cc(O)c(C(=O)c2ccccc2)cc1S(=O)(=O)O` [Benzophenone-4], for which the “reversed-phase LC retention time” value in data set [1] (setting [4]) is 9.83 min. Moreover, in data set [2] (setting [4]), the collision cross section came out at 168.24 Å².

Consider `c1ccc2[nH]nnc2c1` [Benzotriazole], for which the “reversed-phase LC retention time” value in data set [1] (setting [3]) was determined as 7.82 min. Further, in data set [2] (setting [3]), the collision cross section was found to be 119.49 Å².

On to `CCCCOC(=O)c1ccccc1C(=O)OCc1ccccc1` [Benzylbutylphthalate], for which the “reversed-phase LC retention time” value in data set [1] (setting [3]) was determined as 16.3 min. In data set [2] (setting [3]), this molecule showed a collision cross section of 178.47 Å².

Consider `CCCCCCCCCC[N+](C)(C)Cc1ccccc1` [Benzyldimethyldecylammonium], for which, in data set [1] (setting [5]), the “reversed-phase LC retention time” value came to 14.7 min. In data set [2] (setting [5]), the collision cross section is listed as 183.77 Å².

On to `CCCCCCCCCCCC[N+](C)(C)Cc1ccccc1` [Benzyldimethyldodecylammonium], for which the “reversed-phase LC retention time” value in data set [1] (setting [5]) was 16 min. This molecule also came in with a collision cross section in data set [2] (setting [5]) of 196.05 Å².

On to `CCCCCCCCCCCCCCCC[N+](C)(C)Cc1ccccc1` [Benzyldimethylhexadecylammonium], for which, in data set [1] (setting [5]), the “reversed-phase LC retention time” value worked out at 17.8 min. For the same molecule, the collision cross section in data set [2] (setting [5]) is listed as 213.31 Å².

As to `CCCCCCCCCCCCCC[N+](C)(C)Cc1ccccc1` [Benzyldimethyltetradecylammonium], in data set [1] (setting [5]), the “reversed-phase LC retention time” value came out at 17 min. Besides, the collision cross section in data set [2] (setting [5]) is listed as 204.79 Å².

For `C[N+](C)(C)Cc1ccccc1` [Benzyltrimethylammonium], in data set [1] (setting [5]), the “reversed-phase LC retention time” value turned out to be 5.04 min. Besides, the collision cross section in data set [2] (setting [5]) was found to be 129.9 Å².

For the molecule `CCC(=O)OCC(=O)C1(OC(=O)CC)C(C)CC2C3CCC4=CC(=O)C=CC4(C)C3(F)C(O)CC21C` (stereo not drawn) [Betamethasone dipropionate], the “reversed-phase LC retention time” value in data set [1] (setting [3]) was determined as 15.7 min; in data set [1] (setting [4]) it was 16.2 min. The collision cross section in data set [2] (setting [3]) stood at 220.81 Å²; in data set [2] (setting [4]), 216.67 Å².
